Assay results as given in ChEMBL document CHEMBL3217701, “Squaric acid: a valuable scaffold for developing antimalarials?” (Medchemcomm, 2012).

What was measured:
[1] = target: T1, Papain (Carica papaya, UniProt P00784); assay: Inhibition of papaya papain using Z-Leu-Leu-Arg-AMC as substrate measured for 30 mins by fluorescence assay
T1 sequence (P00784 whole entry): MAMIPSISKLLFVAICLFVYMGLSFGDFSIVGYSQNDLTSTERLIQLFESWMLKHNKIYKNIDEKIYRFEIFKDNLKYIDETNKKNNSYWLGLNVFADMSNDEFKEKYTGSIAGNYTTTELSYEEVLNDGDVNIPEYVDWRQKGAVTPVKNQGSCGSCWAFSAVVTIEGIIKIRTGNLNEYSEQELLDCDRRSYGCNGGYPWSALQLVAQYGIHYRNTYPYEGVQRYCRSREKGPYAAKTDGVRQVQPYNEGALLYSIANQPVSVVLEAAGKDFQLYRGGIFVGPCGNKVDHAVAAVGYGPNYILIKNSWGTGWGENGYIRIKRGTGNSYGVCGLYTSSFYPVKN

[2] = Inhibition of Plasmodium falciparum falcipain-2 using Z-Leu-Arg-AMC as substrate after 10 mins by spectrofluorometric analysis
[3] = test system: Plasmodium falciparum; assay: Antiplasmodial activity against chloroquine-resistant ring stage of Plasmodium falciparum W2 infected in human RBC after 48 hrs by flow cytometric analysis; type: functional, organism-based; details: W2, 48 h
[4] = Cytotoxicity against mouse NIH/3T3 cells assessed as inhibition of cell viability after 48 hrs by MTT assay; type: cell-based; details: NIH3T3, 48 h
[5] = test system: HEK-293T; assay: Cytotoxicity against HEK293T cells assessed as inhibition of cell viability after 48 hrs by MTT assay; type: cell-based; details: Homo sapiens
[6] = Selectivity index, ratio of IC50 for HEK293T cells to IC50 for chloroquine-resistant ring stage of Plasmodium falciparum W2; type: toxicity, cell-based, HEK-293T; details: human; read-out: Ratio IC50

| SMILES | IC50 [1] [µM] | IC50 [2] [µM] | IC50 [3] [µM] | IC50 [4] [µM] | IC50 [5] [µM] | selectivity ratio [6] |
| --- | --- | --- | --- | --- | --- | --- |
| COc1cccc(Nc2c(Nc3cccc(OC)c3)c(=O)c2=O)c1 | > 5 | > 50 | > 10 | – | – | – |
| CCN(CC)CCCNc1c(NCCCN(CC)CC)c(=O)c1=O | > 10 | > 50 | > 10 | – | – | – |
| COc1c(Nc2ccc(N3CCCCC3)cc2)c(=O)c1=O | > 10 | – | > 10 | – | – | – |
| COc1c(Nc2ccc(C(C)(C)C)cc2)c(=O)c1=O | > 10 | – | > 10 | – | – | – |
| COc1c(Nc2ccc(Cl)cc2)c(=O)c1=O | > 10 | – | > 10 | – | – | – |
| COc1ccc(Nc2c(OC)c(=O)c2=O)cc1 | > 10 | – | > 10 | – | – | – |
| COc1c(Nc2cccnc2)c(=O)c1=O | > 10 | – | > 10 | – | – | – |
| COc1c(NC(CO)Cc2ccccc2)c(=O)c1=O (configuration not stated) | > 10 | > 50 | > 10 | – | – | – |
| CCCCOc1c(Nc2ccc(N3CCCCC3)cc2)c(=O)c1=O | > 10 | – | 3.13 | > 100 | > 100 | > 32 |
| CCCCOc1c(Nc2ccc(C(C)(C)C)cc2)c(=O)c1=O | > 10 | > 50 | 2.65 | 17.5 | 12.3 | 4.7 |
| O=c1c(Nc2ccc(N3CCCCC3)cc2)c(Nc2ccc(N3CCCCC3)cc2)c1=O | 2.8 | > 50 | 4.16 | > 50 | > 50 | > 12 |
| CC(C)(C)c1ccc(Nc2c(Nc3ccc(C(C)(C)C)cc3)c(=O)c2=O)cc1 | 8.1 | 24.3 | 0.99 | > 100 | > 100 | > 101 |
| O=c1c(Nc2cccnc2)c(Nc2cccnc2)c1=O | > 10 | – | > 10 | – | – | – |
| O=c1c(NC(CO)Cc2ccccc2)c(NC(CO)Cc2ccccc2)c1=O (configuration not stated) | > 10 | – | > 10 | – | – | – |
| CN(C)CCNc1c(NCCN(C)C)c(=O)c1=O | > 10 | – | > 10 | – | – | – |
| CCN(CC)CCNc1c(NCCN(CC)CC)c(=O)c1=O | > 10 | > 50 | > 10 | – | – | – |
| CN(C)CCCNc1c(NCCCN(C)C)c(=O)c1=O | > 10 | – | > 10 | – | – | – |
| CC(C)NCCCNc1c(NCCCNC(C)C)c(=O)c1=O | > 10 | > 50 | > 10 | – | – | – |
| CN(C)CC(C)(C)CNc1c(NCC(C)(C)CN(C)C)c(=O)c1=O | > 10 | – | > 10 | – | – | – |
| CCN(CC)CCCC(C)Nc1c(NC(C)CCCN(CC)CC)c(=O)c1=O (configuration not stated) | > 10 | – | > 10 | – | – | – |
| CCCCNc1c(NCCCC)c(=O)c1=O | > 10 | – | > 10 | – | – | – |

| SMILES | IC50 [1] [µM] | IC50 [2] [µM] | IC50 [3] [µM] | IC50 [4] [µM] | IC50 [5] [µM] | selectivity ratio [6] |
| --- | --- | --- | --- | --- | --- | --- |
| CC(Nc1c(NC(C)c2ccccc2)c(=O)c1=O)c1ccccc1 (configuration not stated) | > 10 | – | > 10 | – | – | – |
| O=c1c(NC2CCCCC2)c(NC2CCCCC2)c1=O | > 10 | – | > 10 | – | – | – |
| COc1c(NNC(=O)[C@H](CC(C)C)NC(=O)OC(C)(C)C)c(=O)c1=O | > 10 | – | 8.53 | > 100 | > 100 | > 12 |
| COc1c(N(Cc2ccccc2)NC(=O)[C@H](CC(C)C)NC(=O)OC(C)(C)C)c(=O)c1=O | > 10 | – | > 1 | – | – | – |
| COc1c(N(CCc2ccccc2)NC(=O)[C@H](CC(C)C)NC(=O)OC(C)(C)C)c(=O)c1=O | > 10 | – | 6.36 | > 100 | > 100 | > 16 |
| COc1c(NNC(=O)[C@H](CC(C)C)NC(=O)N2CCOCC2)c(=O)c1=O | > 10 | – | > 10 | – | – | – |
| COc1c(N(CCc2ccccc2)NC(=O)[C@H](CC(C)C)NC(=O)N2CCOCC2)c(=O)c1=O | > 10 | – | > 10 | – | – | – |
| COc1c(N(CCc2ccccc2)NC(=O)[C@H](CC(C)C)NC(=O)OCc2ccccc2)c(=O)c1=O | > 10 | – | 2.99 | > 100 | > 100 | > 33 |
| COc1c(N(CCc2ccccc2)NC(=O)CNC(=O)OCc2ccccc2)c(=O)c1=O | > 10 | – | 9.36 | > 100 | > 100 | > 11 |
| COc1c(N(CCc2ccccc2)NC(=O)[C@H](Cc2ccccc2)NC(=O)OCc2ccccc2)c(=O)c1=O | > 10 | – | 3.14 | > 100 | > 100 | > 32 |
| CCCCOc1c(NNC(=O)[C@H](CC(C)C)NC(=O)OC(C)(C)C)c(=O)c1=O | > 10 | – | > 10 | – | – | – |
| CCCCOc1c(N(CCc2ccccc2)NC(=O)[C@H](CC(C)C)NC(=O)OC(C)(C)C)c(=O)c1=O | > 10 | – | > 10 | – | – | – |
| CCCCOc1c(NNC(=O)[C@H](CC(C)C)NC(=O)N2CCOCC2)c(=O)c1=O | > 10 | – | 9.45 | > 100 | > 100 | > 11 |
| CCCCOc1c(N(CCc2ccccc2)NC(=O)[C@H](CC(C)C)NC(=O)N2CCOCC2)c(=O)c1=O | > 10 | – | > 10 | – | – | – |
| CCCCOc1c(N(CCc2ccccc2)NC(=O)[C@H](CC(C)C)NC(=O)OCc2ccccc2)c(=O)c1=O | > 10 | – | 4.51 | > 100 | > 100 | > 22 |
| CCCCOc1c(N(CCc2ccccc2)NC(=O)CNC(=O)OCc2ccccc2)c(=O)c1=O | > 10 | – | 5.17 | > 100 | > 100 | > 19 |
| CCCCOc1c(N(CCc2ccccc2)NC(=O)[C@H](Cc2ccccc2)NC(=O)OCc2ccccc2)c(=O)c1=O | > 10 | – | 4.69 | > 100 | > 100 | > 21 |
| CC(C)C[C@H](Nc1c(Nc2ccc(C(C)(C)C)cc2)c(=O)c1=O)C(=O)NN(Cc1ccccc1)C(=O)/C=C/S(=O)(=O)c1ccccc1 | – | – | > 10 | – | – | – |
| CC(C)C[C@H](Nc1c(NC(CO)Cc2ccccc2)c(=O)c1=O)C(=O)NN(Cc1ccccc1)C(=O)/C=C/S(=O)(=O)c1ccccc1 (some centres not stated) | – | – | > 10 | – | – | – |
| CC(C)C[C@H](NC(=O)[C@H]1O[C@@H]1C(=O)O)C(=O)NCCCCN=C(N)N [E-64] | 0.12 | 0.06 | – | – | – | – |
